Tests used:
Assay type in all cases: functional
Leishmania donovani [1] = assay: Antileishmanial activity against axenic amastigotes of Leishmania donovani assessed as growth inhibition
Leishmania donovani [2] = assay: Antileishmanial activity against axenic amastigotes of Leishmania donovani assessed as growth inhibition at 50 uM; details: read-out: GI
SF-268 = assay: Growth inhibition of Homo sapiens (human) SF268 cells after 48 hr by SRB assay; details: SF-268, 48 h
MCF7 = assay: Growth inhibition of Homo sapiens (human) MCF7 cells after 48 hr by SRB assay; details: MCF7, 48 h
NCI-H460 = assay: Growth inhibition of Homo sapiens (human) NCI-H460 cells after 48 hr by SRB assay; details: NCI-H460, 48 h
Leishmania donovani [3] = assay: Antileishmanial activity against axenic amastigotes of Leishmania donovani assessed as growth inhibition at 1 uM; details: read-out: GI

| GI50 (MCF7) [µM] | GI50 (NCI-H460) [µM] | SMILES | GI50 (Leishmania donovani [1]) [µM] | inhibition of growth at 50 µM (Leishmania donovani [2]) [%] | GI50 (SF-268) [µM] | inhibition of growth at 1 µM (Leishmania donovani [3]) [%] |
| --- | --- | --- | --- | --- | --- | --- |
| 36 | 28 | Cc1nc2ccccc2c(=O)n1/N=c1\scc(N)n1-c1ccccc1 | 10 | 96 | 22.5 | – |
| 11.9 | 14.1 | Cc1nc2ccccc2c(=O)n1NC(=O)C1Nc2ccccc2C1=O (centres undefined) | 13 | 92 | 20.3 | – |
| 22.6 | 12.9 | Cc1nc2ccccc2c(=O)n1NCC(=O)NNc1ccccc1 | 28 | 22 | 24.8 | – |
| 50.1 | 23.2 | Cc1nc2ccccc2c(=O)n1NC(=O)CCl | – | 60 | 18.4 | – |
| 0.03 | 0.02 | Cc1nc2ccccc2c(=O)n1NC(=O)/C(Cl)=C/c1ccccc1 | 26 | 80 | 0.05 | – |
| 40.6 | 32.6 | Cc1nc2ccccc2c(=O)n1NC1=CSC(=C(C#N)C#N)N1c1ccccc1 | 18 | 44 | 60.4 | – |
| 0.9 | 0.6 | COc1ccc(/C=C(\Cl)C(=O)Nn2c(C)nc3ccccc3c2=O)cc1 | 28 | 84 | 0.8 | – |
| 32 | 17.3 | Cc1nc2ccccc2c(=O)n1Nc1cc2ccccc2oc1=O | – | 70 | 22.3 | – |
| – | – | C[C@@H]1[C@H](O)[C@@H](C)/C=C/C=C/C=C/C=C/C=C/C=C/C=C/[C@H](O[C@@H]2O[C@H](C)[C@@H](O)[C@H](N)[C@@H]2O)C[C@@H]2O[C@](O)(C[C@@H](O)C[C@@H](O)[C@H](O)CC[C@@H](O)C[C@@H](O)CC(=O)O[C@H]1C)C[C@H](O)[C@H]2C(=O)O [AMPHOTERICIN B] | – | – | – | 98 |
| 0.7 | 0.2 | CC1=CC(C)N(c2ccccc2)C(=S)N1n1c(C)nc2ccccc2c1=O (centres undefined) | – | 48 | 0.03 | – |
| 11.8 | 14.5 | Cc1nc2ccccc2c(=O)n1NCC(=O)NN | 22 | 58 | 16.7 | – |
| 10.9 | 12.1 | Cc1nc2ccccc2c(=O)n1NC(=O)c1cc2ccccc2o1 | 14 | 28 | 22.3 | – |
| 70.6 | 38.9 | Cc1nc2ccccc2c(=O)n1NC(=O)/C(Cl)=C/c1ccc(Cl)cc1 | 18 | 50 | 50.8 | – |
| 20.9 | 22.6 | CCOC(=O)CNn1c(C)nc2ccccc2c1=O | 10 | 44 | 26.8 | – |
| 0.04 | 0.09 | COc1cccc2c1C(=O)c1c(O)c3c(c(O)c1C2=O)C[C@@](O)(C(=O)CO)C[C@@H]3O[C@H]1C[C@H](N)[C@H](O)[C@H](C)O1 [DOXORUBICIN] | – | – | 0.09 | – |
| 0.01 | 0.2 | Cc1nc2ccccc2c(=O)n1Nc1csc(N)n1 | 22 | 72 | 0.4 | – |
| 22.9 | 43.6 | Cc1nc2ccccc2c(=O)n1-n1c(C)cc(=O)n(-c2ccccc2)c1=S | 12 | 66 | 36.8 | – |
| 20 | 22 | Cc1nc2ccccc2c(=O)n1NCc1nc2ccccc2[nH]1 | – | 85 | 31.5 | – |
| 13.1 | 0.9 | CCOC(=O)c1c(N)cc(O)n1-n1c(C)nc2ccccc2c1=O | 18 | 60 | 11.5 | – |
| 0.4 | 0.1 | CCOC(=O)c1c(N)cc(N)n1-n1c(C)nc2ccccc2c1=O | – | 40 | 0.9 | – |
| 64.9 | 78.6 | Cc1nc2ccccc2c(=O)n1NC(=S)Nc1ccccc1 | 12 | 98 | 56.8 | – |
| 22 | 30.6 | Cc1nc2ccccc2c(=O)n1/N=C1\SCC(=O)N1c1ccccc1 | 12 | 44 | 38.4 | – |
